Experiments:
[1] = molecular target: Casein kinase I isoform gamma-1 (Homo sapiens) (UniProt Q9HCP0); assay: Inhibition of recombinant human CK1gamma1 assessed as residual activity at 10 uM using KRRRALS(p)VASLPGL as substrate incubated for 40 mins in presence of [gamma-33ATP] by scintillation counting based radiometry assay relative to control
[2] = molecular target: Serine/threonine-protein kinase tousled-like 2 (Homo sapiens) (UniProt Q86UE8); assay: Inhibition of recombinant human TLK2 (387 to end residues) assessed as residual activity at 10 uM using casein as substrate incubated for 40 mins in presence of [gamma33P]ATP by scintillation counting based radiometry assay relative to control
[3] = molecular target: Inhibitor of nuclear factor kappa-B kinase subunit alpha (Homo sapiens) (UniProt O15111); assay: Inhibition of full length human IKKalpha assessed as residual activity at 10 uM using peptide as substrate after 40 mins by [gamma-33ATP] radiometric assay relative to control
[4] = test system: RAF proto-oncogene serine/threonine-protein kinase (Homo sapiens), P04049 [Y340D,Y341D]; assay: Inhibition of recombinant human C-Raf Y340D/Y341D mutant (306 to end residues) assessed as residual activity at 10 uM poly(Glu, Tyr) 4:1 as substrate incubated 40 mins in presence of [gamma-33ATP] by scintillation counting based radiometry assay relative to control
Homo sapiens [5] = species: Homo sapiens; assay: Inhibition of recombinant human MAPKAPK2 A399G mutant (46 to end residues) assessed as residual activity at 10 uM using KKLNRTLSVA as substrate incubated for 40 mins in presence of [gamma-33ATP by scintillation counting based radiometry assay relative to control
[6] = molecular target: Serine/threonine-protein kinase pim-2 (Homo sapiens) (UniProt Q9P1W9); assay: Inhibition of recombinant human Pim2 (2 to end residues) assessed as residual activity at 10 uM using RSRHSSYPAG as substrate incubated for 40 mins in presence of [gamma33P]ATP by scintillation counting based radiometry assay relative to control
[7] = molecular target: Tyrosine-protein kinase JAK3 (Homo sapiens) (UniProt P52333); assay: Inhibition of human JAK3 (781 to end residues) assessed as residual activity at 10 uM using GGEEEEYFELVKKKK as substrate after 40 mins by [gamma-33ATP] radiometric assay relative to control
Mus musculus = species: Mus musculus; assay: Inhibition of mouse MAPK2 assessed as residual activity at 10 uM relative to control
[8] = molecular target: Testis-specific serine/threonine-protein kinase 1 (Homo sapiens) (UniProt Q9BXA7); assay: Inhibition of recombinant full-length human TSSK1 assessed as residual activity at 10 uM using KKKVSRSGLYRSPSMPENLNRPR as substrate incubated for 40 mins in presence of [gamma33P]ATP by scintillation counting based radiometry assay relative to control
[9] = molecular target: Mitogen-activated protein kinase 1 (Homo sapiens) (UniProt P28482); assay: Inhibition of recombinant full length human MAPK1 assessed as residual activity at 10 uM using myelin basic protein as substrate incubated for 40 mins in presence of [gamma-33ATP by scintillation counting based radiometry assay relative to control
Homo sapiens [10] = species: Homo sapiens; assay: Inhibition of recombinant human full length PI3K p110/p65 assessed as residual activity at 10 uM using phosphatidylinositol-4, 5-bisphosphate as substrate incubated for 40 mins in presence of [gamma33P]ATP by scintillation counting based radiometry assay relative to control
[11] = molecular target: Serine/threonine-protein kinase 32C (Homo sapiens) (UniProt Q86UX6); assay: Inhibition of recombinant human full length STK32C assessed as residual activity at 10 uM using casein as substrate incubated for 40 mins in presence of [gamma33P]ATP by scintillation counting based radiometry assay relative to control
[12] = molecular target: [Pyruvate dehydrogenase (acetyl-transferring)] kinase isozyme 2, mitochondrial (Homo sapiens) (UniProt Q15119); assay: Inhibition of human PDHK2 assessed as residual activity at 10 uM by scintillation counting based radiometry assay relative to control
[13] = molecular target: Tyrosine-protein kinase HCK (Homo sapiens) (UniProt P08631); assay: Inhibition of human HCK activated (230 to 497 residues) assessed as residual activity at 10 uM using GGMEDIYFEFMGGKKK as substrate after 40 mins by [gamma-33ATP] radiometric assay relative to control
[14] = molecular target: Dual specificity mitogen-activated protein kinase kinase 6 (Homo sapiens) (UniProt P52564); assay: Inhibition of recombinant human MKK6 assessed as residual activity at 10 uM by scintillation counting based radiometry assay relative to control
[15] = test system: Tyrosine-protein kinase ABL1 (Homo sapiens), P00519 [M351T]; assay: Inhibition of human ABL1 M351T mutant (27 to end residues) assessed as residual activity at 10 uM using EAIYAAPFAKKK as substrate incubated for 40 mins in presence of [gamma-33ATP] by scintillation counting based radiometry assay relative to control
[16] = molecular target: Cyclin-dependent kinase 14/Cyclin-Y (Homo sapiens) (UniProt O94921+Q8ND76); assay: Inhibition of recombinant full length human CDK14/cyclinY assessed as residual activity at 10 uM in presence of [gamma-33ATP] by scintillation counting based radiometry assay relative to control; type: protein-complex assay
[17] = molecular target: Homeodomain-interacting protein kinase 4 (Homo sapiens) (UniProt Q8NE63); assay: Inhibition of human HIPK4 assessed as residual activity at 10 uM using RRRFRPASPLRGPPK as substrate after 40 mins by [gamma-33ATP] radiometric assay relative to control
[18] = molecular target: Fibroblast growth factor receptor 3 (Homo sapiens) (UniProt P22607); assay: Inhibition of recombinant human FGFR3 (447 to 761 residues) assessed as residual activity at 10 uM using poly(Glu, Tyr) 4:1 as substrate at 40 mins in presence of [gamma-33ATP] by scintillation counting based radiometry assay relative to control
[19] = molecular target: Dual specificity mitogen-activated protein kinase kinase 4 (Mus musculus) (UniProt P47809); assay: Inhibition of recombinant mouse MKK4 (34 to end residues) assessed as residual activity at 10 uM using poly(Glu, Tyr) 4:1 as substrate incubated for 40 mins in presence of [gamma-33ATP] by scintillation counting based radiometry assay relative to control
[20] = molecular target: Serine/threonine-protein kinase PAK 6 (Homo sapiens) (UniProt Q9NQU5); assay: Inhibition of recombinant human PAK6 (382 to end residues) assessed as residual activity at 10 uM using RRRLSFAEPG as substrate measured after 40 mins in presence of [gamma33P]ATP by scintillation counting based radiometry assay relative to control
[21] = molecular target: Myosin light chain kinase 2, skeletal/cardiac muscle (Homo sapiens) (UniProt Q9H1R3); assay: Inhibition of recombinant full length human MYLK2 assessed as residual activity at 10 uM using KKLNRTLSFAEPG as substrate measured after 40 mins in presence of [gamma33P]ATP by scintillation counting based radiometry assay relative to control
[22] = molecular target: G protein-coupled receptor kinase 5 (Homo sapiens) (UniProt P34947); assay: Inhibition of recombinant full length human GRK5 assessed as residual activity at 10 uM using casein as substrate at 40 mins in presence of [gamma-33ATP] by scintillation counting based radiometry assay relative to control
Chain of G protein-coupled receptor kinase 5 (Homo sapiens) (P34947 whole entry, looked up): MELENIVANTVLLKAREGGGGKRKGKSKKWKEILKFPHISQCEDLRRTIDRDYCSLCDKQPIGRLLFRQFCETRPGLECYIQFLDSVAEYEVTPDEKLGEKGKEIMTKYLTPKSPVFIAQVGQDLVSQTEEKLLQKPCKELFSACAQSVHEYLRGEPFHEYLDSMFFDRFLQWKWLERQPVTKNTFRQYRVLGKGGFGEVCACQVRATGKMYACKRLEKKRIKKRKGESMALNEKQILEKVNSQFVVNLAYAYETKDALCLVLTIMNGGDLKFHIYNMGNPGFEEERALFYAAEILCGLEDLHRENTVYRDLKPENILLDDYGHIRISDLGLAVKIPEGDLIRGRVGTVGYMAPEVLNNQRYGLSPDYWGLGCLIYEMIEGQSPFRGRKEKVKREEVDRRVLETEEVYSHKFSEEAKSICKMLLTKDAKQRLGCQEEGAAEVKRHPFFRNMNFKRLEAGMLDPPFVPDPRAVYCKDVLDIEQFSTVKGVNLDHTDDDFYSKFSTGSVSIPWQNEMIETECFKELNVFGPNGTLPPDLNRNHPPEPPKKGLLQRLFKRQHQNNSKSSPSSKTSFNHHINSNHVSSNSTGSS

Chain of Tyrosine-protein kinase JAK3 (Homo sapiens) (P52333 whole entry): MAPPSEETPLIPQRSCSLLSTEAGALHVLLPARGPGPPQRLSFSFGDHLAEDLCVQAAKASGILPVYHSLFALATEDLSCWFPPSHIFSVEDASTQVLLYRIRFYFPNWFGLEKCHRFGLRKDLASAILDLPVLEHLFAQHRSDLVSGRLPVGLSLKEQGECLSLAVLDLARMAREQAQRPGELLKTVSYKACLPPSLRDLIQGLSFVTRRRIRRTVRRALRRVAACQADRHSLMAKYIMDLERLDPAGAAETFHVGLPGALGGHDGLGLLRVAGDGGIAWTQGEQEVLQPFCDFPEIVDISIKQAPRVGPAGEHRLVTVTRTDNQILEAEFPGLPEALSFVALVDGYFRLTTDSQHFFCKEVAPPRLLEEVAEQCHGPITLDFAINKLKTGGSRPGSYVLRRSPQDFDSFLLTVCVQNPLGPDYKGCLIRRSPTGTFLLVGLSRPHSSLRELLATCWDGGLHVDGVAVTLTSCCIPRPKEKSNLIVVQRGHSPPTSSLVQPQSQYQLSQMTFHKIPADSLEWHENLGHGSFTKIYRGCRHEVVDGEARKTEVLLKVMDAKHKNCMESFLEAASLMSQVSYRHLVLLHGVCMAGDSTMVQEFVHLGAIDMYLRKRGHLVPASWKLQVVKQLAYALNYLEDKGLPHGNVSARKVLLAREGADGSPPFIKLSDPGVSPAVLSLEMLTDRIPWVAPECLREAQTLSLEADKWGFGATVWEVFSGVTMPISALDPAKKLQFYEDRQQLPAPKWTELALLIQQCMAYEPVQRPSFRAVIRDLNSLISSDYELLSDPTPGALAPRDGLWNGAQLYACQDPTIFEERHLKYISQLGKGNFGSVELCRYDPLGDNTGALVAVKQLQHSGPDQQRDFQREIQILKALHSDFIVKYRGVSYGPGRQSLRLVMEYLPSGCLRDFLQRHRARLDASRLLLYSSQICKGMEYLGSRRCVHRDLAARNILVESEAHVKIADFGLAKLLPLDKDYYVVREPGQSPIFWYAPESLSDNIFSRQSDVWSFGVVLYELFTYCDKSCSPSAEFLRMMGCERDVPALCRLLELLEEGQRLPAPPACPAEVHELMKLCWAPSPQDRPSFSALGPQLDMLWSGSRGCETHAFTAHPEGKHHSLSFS
Chain of Testis-specific serine/threonine-protein kinase 1 (Homo sapiens) (Q9BXA7 whole entry): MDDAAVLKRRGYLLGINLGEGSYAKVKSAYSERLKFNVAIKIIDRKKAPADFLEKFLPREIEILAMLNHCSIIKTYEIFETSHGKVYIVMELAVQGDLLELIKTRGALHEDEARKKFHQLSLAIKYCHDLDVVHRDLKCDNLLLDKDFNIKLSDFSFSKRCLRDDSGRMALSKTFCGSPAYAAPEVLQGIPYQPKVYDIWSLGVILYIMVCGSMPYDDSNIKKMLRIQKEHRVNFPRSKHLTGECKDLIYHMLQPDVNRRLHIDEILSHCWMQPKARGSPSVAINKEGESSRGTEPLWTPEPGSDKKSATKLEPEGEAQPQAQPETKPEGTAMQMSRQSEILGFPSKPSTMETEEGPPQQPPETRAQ
Chain of Serine/threonine-protein kinase tousled-like 2 (Homo sapiens) (Q86UE8 whole entry, looked up): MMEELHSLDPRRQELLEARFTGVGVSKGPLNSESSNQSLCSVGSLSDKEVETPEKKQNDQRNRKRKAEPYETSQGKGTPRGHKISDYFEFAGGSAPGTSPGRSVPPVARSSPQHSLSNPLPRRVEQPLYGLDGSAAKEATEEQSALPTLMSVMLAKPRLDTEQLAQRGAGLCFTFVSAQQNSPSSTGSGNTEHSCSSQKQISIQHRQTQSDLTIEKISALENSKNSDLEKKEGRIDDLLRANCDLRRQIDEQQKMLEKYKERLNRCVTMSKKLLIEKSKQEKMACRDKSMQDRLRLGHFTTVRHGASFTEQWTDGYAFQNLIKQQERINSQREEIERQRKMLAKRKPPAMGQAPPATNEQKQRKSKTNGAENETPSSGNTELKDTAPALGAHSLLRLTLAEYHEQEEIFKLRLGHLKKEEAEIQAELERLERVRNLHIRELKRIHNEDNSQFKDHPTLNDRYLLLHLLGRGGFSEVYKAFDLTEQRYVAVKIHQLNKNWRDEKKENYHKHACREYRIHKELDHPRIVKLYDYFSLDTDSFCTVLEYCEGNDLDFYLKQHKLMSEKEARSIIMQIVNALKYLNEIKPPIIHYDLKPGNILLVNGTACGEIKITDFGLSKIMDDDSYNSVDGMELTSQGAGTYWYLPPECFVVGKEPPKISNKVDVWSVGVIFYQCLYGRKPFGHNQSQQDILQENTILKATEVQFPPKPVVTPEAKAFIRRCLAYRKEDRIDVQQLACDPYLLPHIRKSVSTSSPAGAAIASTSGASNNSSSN
Chain of Myosin light chain kinase 2, skeletal/cardiac muscle (Homo sapiens) (Q9H1R3 whole entry): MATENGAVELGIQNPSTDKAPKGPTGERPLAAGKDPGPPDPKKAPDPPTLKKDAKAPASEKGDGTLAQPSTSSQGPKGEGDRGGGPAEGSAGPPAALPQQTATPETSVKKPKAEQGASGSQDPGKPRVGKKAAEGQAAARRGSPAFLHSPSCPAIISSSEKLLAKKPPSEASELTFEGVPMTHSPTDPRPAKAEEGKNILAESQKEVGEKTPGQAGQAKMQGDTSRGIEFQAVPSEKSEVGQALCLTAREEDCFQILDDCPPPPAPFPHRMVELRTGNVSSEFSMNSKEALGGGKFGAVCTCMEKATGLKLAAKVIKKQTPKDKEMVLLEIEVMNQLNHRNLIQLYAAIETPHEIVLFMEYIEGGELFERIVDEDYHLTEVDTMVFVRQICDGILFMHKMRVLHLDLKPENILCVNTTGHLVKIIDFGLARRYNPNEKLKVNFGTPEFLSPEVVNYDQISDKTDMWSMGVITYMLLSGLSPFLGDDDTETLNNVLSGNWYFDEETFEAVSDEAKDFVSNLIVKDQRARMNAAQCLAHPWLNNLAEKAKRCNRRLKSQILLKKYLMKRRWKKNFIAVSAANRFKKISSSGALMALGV
Chain of Casein kinase I isoform gamma-1 (Homo sapiens) (Q9HCP0 whole entry, looked up, canonical isoform): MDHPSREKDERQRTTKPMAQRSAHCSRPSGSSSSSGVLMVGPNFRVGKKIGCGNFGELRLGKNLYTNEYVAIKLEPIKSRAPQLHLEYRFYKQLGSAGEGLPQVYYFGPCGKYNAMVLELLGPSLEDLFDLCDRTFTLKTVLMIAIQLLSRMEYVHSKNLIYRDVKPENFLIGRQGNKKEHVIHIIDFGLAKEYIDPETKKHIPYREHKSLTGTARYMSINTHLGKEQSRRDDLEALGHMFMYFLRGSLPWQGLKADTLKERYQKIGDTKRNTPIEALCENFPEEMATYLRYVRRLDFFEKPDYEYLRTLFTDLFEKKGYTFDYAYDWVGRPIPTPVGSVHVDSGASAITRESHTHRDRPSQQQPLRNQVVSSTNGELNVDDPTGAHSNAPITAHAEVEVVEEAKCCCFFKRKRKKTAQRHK
Chain of Inhibitor of nuclear factor kappa-B kinase subunit alpha (Homo sapiens) (O15111 whole entry): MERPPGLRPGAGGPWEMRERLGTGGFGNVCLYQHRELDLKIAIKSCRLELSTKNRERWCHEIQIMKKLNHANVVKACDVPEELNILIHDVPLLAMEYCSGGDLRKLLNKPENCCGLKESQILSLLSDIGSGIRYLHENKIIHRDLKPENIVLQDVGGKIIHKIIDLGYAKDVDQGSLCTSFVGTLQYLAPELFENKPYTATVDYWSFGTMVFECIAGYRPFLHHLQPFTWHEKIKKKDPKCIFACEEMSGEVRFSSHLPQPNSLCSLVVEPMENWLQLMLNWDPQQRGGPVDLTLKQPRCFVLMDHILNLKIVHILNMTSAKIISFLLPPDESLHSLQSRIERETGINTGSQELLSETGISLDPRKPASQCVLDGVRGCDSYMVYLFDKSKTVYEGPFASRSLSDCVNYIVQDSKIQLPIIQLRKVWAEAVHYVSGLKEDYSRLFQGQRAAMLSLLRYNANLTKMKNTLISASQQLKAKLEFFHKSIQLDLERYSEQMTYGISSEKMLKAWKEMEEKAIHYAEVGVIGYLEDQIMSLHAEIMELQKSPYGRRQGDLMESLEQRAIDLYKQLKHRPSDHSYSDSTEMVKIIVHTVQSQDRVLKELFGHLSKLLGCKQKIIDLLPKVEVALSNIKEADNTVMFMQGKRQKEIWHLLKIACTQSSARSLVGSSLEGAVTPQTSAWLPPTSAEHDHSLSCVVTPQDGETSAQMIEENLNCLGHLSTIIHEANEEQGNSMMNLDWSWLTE
Chain of Dual specificity mitogen-activated protein kinase kinase 4 (Mus musculus) (P47809 whole entry): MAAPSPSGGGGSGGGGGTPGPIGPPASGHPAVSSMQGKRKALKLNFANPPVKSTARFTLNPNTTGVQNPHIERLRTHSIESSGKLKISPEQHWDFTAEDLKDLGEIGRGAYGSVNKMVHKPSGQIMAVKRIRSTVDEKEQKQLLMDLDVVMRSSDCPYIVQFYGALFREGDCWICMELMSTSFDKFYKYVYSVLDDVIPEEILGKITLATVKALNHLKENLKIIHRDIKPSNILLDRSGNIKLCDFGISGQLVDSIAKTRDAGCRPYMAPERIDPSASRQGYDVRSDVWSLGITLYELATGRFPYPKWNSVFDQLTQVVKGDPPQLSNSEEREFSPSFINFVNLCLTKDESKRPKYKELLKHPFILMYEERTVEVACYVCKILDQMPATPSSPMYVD

What does the source list for `C[C@@H](c1ccccc1)n1nnc2cnc3ccc(-c4cnc5[nH]ccc5c4)cc3c21`?
Activity [1]: 48%; Activity [2]: 106%; Activity [3]: 90%; Activity [4]: 77%; Activity (Homo sapiens [5]): 67%; Activity [6]: 80%; Activity [7]: 43%; Activity (Mus musculus): 100%; Activity [8]: 74%; Activity [9]: 100%; Activity (Homo sapiens [10]): 3%; Activity [11]: 91%; Activity [12]: 86%; Activity [13]: 21%; Activity [14]: 109%; Activity [15]: 3%; Activity [16]: 92%; Activity [17]: 57%; Activity [18]: 50%; Activity [19]: 129%; Activity [20]: 74%; Activity [21]: 70%; Activity [22]: 91%
